Broadly, the pIC50 is the IC50 on a negative log10 scale, so that one unit is a factor of ten.

pIC50: −log10 of the molar value.

In patent US20080234262A1 (Wyeth, priority 2007, published 2008) one finds IC50 data, which are given here for 34 molecules.

One experiment deals with breast line MDA468. The experiment can be described thus: In vitro cell culture growth assay (MTS), MDA468. It counts as cell-based, human. The note with it: MDA468 cells, three days after drug treatment. The method, boiled down:
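Cells were plated and, one day later, exposed to inhibitors for three days; viable cell density was then measured by metabolic conversion of MTS dye, read as absorbance at 490 nm. Growth is expressed as percent of vehicle-treated control cells on the same plate.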

The subject of a further experiment is prostate line LNCap. The experiment can be described thus: In vitro cell culture growth assay (MTS), LNCap. Conditions: LNCap cells, three days after drug treatment. It counts as cell-based, human.
Another experiment concerns the target PI3K (Homo sapiens, UniProt P42336). The experiment in a line: Fluorescence polarization assay for PI3K.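 Further: PI3K kinase reaction on PIP2 with ATP, 30-60 min, product sensed by GST-GRP with red probe in fluorescence polarization (mP), controls without enzyme and at zero time.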 It counts as biochemical. The note with it: PI3Kα; read-out: PI3Kα IC50. On the technique in general: Fluorescence polarisation rises when a labelled molecule tumbles more slowly, as on binding a larger partner.

PI3K, sequence (P42336 whole entry): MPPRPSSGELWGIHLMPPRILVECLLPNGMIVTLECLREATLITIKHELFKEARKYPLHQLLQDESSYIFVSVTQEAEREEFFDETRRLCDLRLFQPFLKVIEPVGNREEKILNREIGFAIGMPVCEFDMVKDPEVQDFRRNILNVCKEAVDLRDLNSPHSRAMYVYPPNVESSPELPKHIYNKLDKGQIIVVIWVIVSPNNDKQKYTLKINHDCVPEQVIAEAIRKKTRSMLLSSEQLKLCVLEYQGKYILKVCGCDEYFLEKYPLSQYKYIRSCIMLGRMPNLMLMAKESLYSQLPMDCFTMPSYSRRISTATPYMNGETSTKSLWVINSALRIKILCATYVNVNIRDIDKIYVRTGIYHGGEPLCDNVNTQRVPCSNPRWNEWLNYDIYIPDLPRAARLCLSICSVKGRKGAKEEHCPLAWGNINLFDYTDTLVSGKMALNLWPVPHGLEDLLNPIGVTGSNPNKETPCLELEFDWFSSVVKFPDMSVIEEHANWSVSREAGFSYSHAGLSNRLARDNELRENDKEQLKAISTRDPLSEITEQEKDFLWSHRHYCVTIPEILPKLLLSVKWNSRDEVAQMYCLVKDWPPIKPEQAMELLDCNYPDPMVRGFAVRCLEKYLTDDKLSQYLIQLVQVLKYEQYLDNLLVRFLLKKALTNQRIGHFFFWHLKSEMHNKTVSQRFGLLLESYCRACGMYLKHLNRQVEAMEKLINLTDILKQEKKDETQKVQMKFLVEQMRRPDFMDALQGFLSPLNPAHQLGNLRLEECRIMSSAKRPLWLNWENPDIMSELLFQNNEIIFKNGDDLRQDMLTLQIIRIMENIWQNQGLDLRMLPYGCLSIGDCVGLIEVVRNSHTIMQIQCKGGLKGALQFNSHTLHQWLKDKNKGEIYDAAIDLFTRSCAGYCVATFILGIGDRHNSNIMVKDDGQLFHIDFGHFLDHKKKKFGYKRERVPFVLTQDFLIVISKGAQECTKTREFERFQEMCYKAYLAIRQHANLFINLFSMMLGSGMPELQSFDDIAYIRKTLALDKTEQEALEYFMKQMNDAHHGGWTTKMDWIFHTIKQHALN
PI3K, sequence (P27986 whole entry partner): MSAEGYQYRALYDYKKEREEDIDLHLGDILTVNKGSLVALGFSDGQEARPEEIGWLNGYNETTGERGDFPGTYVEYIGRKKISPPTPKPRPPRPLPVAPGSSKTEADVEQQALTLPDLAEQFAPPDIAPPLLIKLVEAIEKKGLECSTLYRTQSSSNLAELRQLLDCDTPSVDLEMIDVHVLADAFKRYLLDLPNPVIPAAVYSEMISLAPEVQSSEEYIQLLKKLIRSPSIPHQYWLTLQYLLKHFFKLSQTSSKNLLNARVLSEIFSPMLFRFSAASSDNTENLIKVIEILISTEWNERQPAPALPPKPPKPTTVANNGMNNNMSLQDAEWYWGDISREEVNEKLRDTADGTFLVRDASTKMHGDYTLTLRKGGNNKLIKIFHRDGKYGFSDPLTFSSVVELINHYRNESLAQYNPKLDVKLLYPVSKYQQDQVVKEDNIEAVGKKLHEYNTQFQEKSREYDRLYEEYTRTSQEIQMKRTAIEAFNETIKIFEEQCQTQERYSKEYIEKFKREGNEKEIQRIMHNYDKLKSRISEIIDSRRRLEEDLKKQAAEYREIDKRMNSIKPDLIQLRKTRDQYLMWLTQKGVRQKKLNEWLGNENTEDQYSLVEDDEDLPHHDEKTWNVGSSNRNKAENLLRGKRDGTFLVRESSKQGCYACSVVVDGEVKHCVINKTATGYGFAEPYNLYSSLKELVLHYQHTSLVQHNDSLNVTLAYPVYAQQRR

Regarding “1-(4-{1-[1-(methoxymethyl)piperidin-4-yl]-4-morpholin-4-yl-1H-pyrazolo[3,4-d]pyrimidin-6-yl}phenyl)-3-methylurea [Compound 796]”, the pIC50 with breast line MDA468 was 4.52; with prostate line LNCap it was 4.66; on PI3K, 5.81.

With `c1ccc(-n2ncc3c(N4CCOCC4)nc(-c4ccc[nH]4)nc32)cc1` [Compound 6], the pIC50 in the experiment with breast line MDA468 (Homo sapiens, 72 h) is 4.96; in the experiment on prostate line LNCap (Homo sapiens, LNCaP, 72 h), 5.62; on PI3K, 5.87.

For `Oc1cccc(-c2nc(N3CCOCC3)c3cnn(C4CCNCC4)c3n2)c1` [Compound 9], the pIC50 with breast line MDA468 (Homo sapiens, 72 h) is 5.66; in the experiment on prostate line LNCap (Homo sapiens, LNCaP, 72 h) it was 6.43; on PI3K, 7.44.

As for `COc1cncc(-c2nc(N3CCOCC3)c3cnn(C)c3n2)c1` [Compound 11], the negative-log IC50 (pIC50) was 5.30 with breast line MDA468 (Homo sapiens, 72 h); 5.33 in the experiment on prostate line LNCap (Homo sapiens, LNCaP, 72 h); 6.55 on PI3K.

Turning to `Oc1cccc(-c2nc(N3CCOCC3)c3cnn(C4CCN(Cc5ccco5)CC4)c3n2)c1` [Compound 15], the pIC50 is 6.22 in the experiment on breast line MDA468 (Homo sapiens, 72 h); 7.13 in the experiment on prostate line LNCap (Homo sapiens, LNCaP, 72 h); 7.26 on PI3K.

On to `Oc1cccc(-c2nc(N3CCOCC3)c3cnn(C4CCN(CC5CCCCC5)CC4)c3n2)c1` [Compound 17], for which the negative logarithm of the IC50 (pIC50) in the experiment with breast line MDA468 (Homo sapiens, 72 h) is 5.70; with prostate line LNCap (Homo sapiens, LNCaP, 72 h), 6.51; on PI3K, 6.97.

In the case of `Oc1cccc(-c2nc(N3CCOCC3)c3cnn(C4CCN(Cc5ccc(Cl)cc5)CC4)c3n2)c1` [Compound 19], the negative-log IC50 (pIC50) with breast line MDA468 (Homo sapiens, 72 h) was 5.77; in the experiment with prostate line LNCap (Homo sapiens, LNCaP, 72 h), 6.35; at PI3K it was 7.96.

On to `O=C(c1ccc(Cl)cc1)N1CCC(n2ncc3c(N4CCOCC4)nc(-c4cccc(O)c4)nc32)CC1` [Compound 27], for which the negative logarithm of the IC50 (pIC50) is 5.62 in the experiment with breast line MDA468 (Homo sapiens, 72 h); 6.26 in the experiment with prostate line LNCap (Homo sapiens, LNCaP, 72 h); 7.39 at PI3K.

Regarding `COc1ccc(C(=O)N2CCC(n3ncc4c(N5CCOCC5)nc(-c5cccc(O)c5)nc43)CC2)cc1` [Compound 28, 3-{1-[1-(4-methoxybenzoyl)piperidin-4-yl]-4-morpholin-4-yl-1H-pyrazolo[3,4-d]pyrimidin-6-yl}phenol], the pIC50 is 5.96 with breast line MDA468 (Homo sapiens, 72 h); 6.66 with prostate line LNCap (Homo sapiens, LNCaP, 72 h); 7.48 at PI3K.

As to `c1ccc(CN2CCC(n3ncc4c(N5CCOCC5)nc(-c5ccc6cc[nH]c6c5)nc43)CC2)cc1` [Compound 49], the pIC50 in the experiment with breast line MDA468 (Homo sapiens, 72 h) was 5.24; with prostate line LNCap (Homo sapiens, LNCaP, 72 h), 5.68; at PI3K it was 5.90.

Regarding `O=C(O)CCC(=O)Nc1ccc(-c2nc(N3CCOCC3)c3cnn(C4CCN(Cc5ccccc5)CC4)c3n2)cc1` [Compound 81], the pIC50 was 4.35 in the experiment on breast line MDA468 (Homo sapiens, 72 h); 4.22 in the experiment on prostate line LNCap (Homo sapiens, LNCaP, 72 h); 5.43 on PI3K.

For `NC(=O)c1cccc(-c2nc(N3CCOCC3)c3cnn(C4CCN(Cc5ccccc5)CC4)c3n2)c1` [Compound 82], the pIC50 in the experiment on breast line MDA468 (Homo sapiens, 72 h) is 4.54; in the experiment on prostate line LNCap (Homo sapiens, LNCaP, 72 h), 4.89; on PI3K it was 6.06.

Take `Nc1ccc(-c2nc(N3CCOCC3)c3cnn(-c4ccccc4)c3n2)nc1` [Compound 438, 6-(4-morpholin-4-yl-1-phenyl-1H-pyrazolo[3,4-d]pyrimidin-6-yl)pyridin-3-amine]: the negative logarithm of the IC50 (pIC50) in the experiment with breast line MDA468 (Homo sapiens, 72 h) is 4.22; in the experiment with prostate line LNCap (Homo sapiens, LNCaP, 72 h), 5.15.

As for `Nc1cccc(-c2nc(N3CCOCC3)c3cnn(-c4ccccc4)c3n2)n1` [Compound 439, 6-(4-morpholin-4-yl-1-phenyl-1H-pyrazolo[3,4-d]pyrimidin-6-yl)pyridin-2-amine], the negative logarithm of the IC50 (pIC50) in the experiment on breast line MDA468 (Homo sapiens, 72 h) was 4.22; with prostate line LNCap (Homo sapiens, LNCaP, 72 h), 4.22.

Turning to `O=CNc1ccc(-c2nc(N3CCOCC3)c3cnn(C4CCN(Cc5ccccc5)CC4)c3n2)cc1` [Compound 485, N-{4-[1-(1-benzylpiperidin-4-yl)-4-morpholin-4-yl-1H-pyrazolo[3,4-d]pyrimidin-6-yl]phenyl}formamide], the pIC50 is 5.35 in the experiment on breast line MDA468 (Homo sapiens, 72 h) and 5.85 in the experiment on prostate line LNCap (Homo sapiens, LNCaP, 72 h).

`Oc1ccc(-c2nc(N3CCOCC3)c3cnn(C4CCN(Cc5ccccc5)CC4)c3n2)cc1` [Compound 486, 4-[1-(1-benzylpiperidin-4-yl)-4-morpholin-4-yl-1H-pyrazolo[3,4-d]pyrimidin-6-yl]phenol]: the pIC50 in the experiment with breast line MDA468 (Homo sapiens, 72 h) was 5.40; in the experiment with prostate line LNCap (Homo sapiens, LNCaP, 72 h), 5.85.

In the case of `CNC(=S)Nc1ccc(-c2nc(N3CCOCC3)c3cnn(C4CCN(Cc5cccnc5)CC4)c3n2)cc1` [Compound 622, 1-methyl-3-(4-{4-morpholin-4-yl-1-[1-(pyridin-3-ylmethyl)piperidin-4-yl]-1H-pyrazolo[3,4-d]pyrimidin-6-yl}phenyl)thiourea], the negative-log IC50 (pIC50) is 6.30 with breast line MDA468 (Homo sapiens, 72 h) and 7.15 with prostate line LNCap (Homo sapiens, LNCaP, 72 h).

`Nc1cccc(-c2nc(N3CCOCC3)c3cnn(-c4ccccc4)c3n2)n1` [Compound 683, 6-(4-morpholin-4-yl-1-phenyl-1H-pyrazolo[3,4-d]pyrimidin-6-yl)pyridin-2-amine]: the negative logarithm of the IC50 (pIC50) in the experiment on breast line MDA468 and in the experiment on prostate line LNCap was less than 4.22 each time.

Turning to `COC(=O)N1CCC(n2ncc3c(N4CCOCC4)nc(-c4ccc(NC(=O)Nc5ccncc5)cc4)nc32)CC1` [Compound 738, methyl 4-(4-morpholin-4-yl-6-{4-[(pyridin-4-ylcarbamoyl)amino]phenyl}-1H-pyrazolo[3,4-d]pyrimidin-1-yl)piperidine-1-carboxylate], the negative-log IC50 (pIC50) is greater than 7.57 in the experiment with breast line MDA468 (Homo sapiens, 72 h) and greater than 7.57 in the experiment on prostate line LNCap (Homo sapiens, LNCaP, 72 h).

Consider `COC(=O)Nc1ccc(-c2nc(N3CCOCC3)c3cnn(C4CCN(C(=O)OC)CC4)c3n2)cc1` [Compound 739, methyl 4-(6-{4-[(methoxycarbonyl)amino]phenyl}-4-morpholin-4-yl-1H-pyrazolo[3,4-d]pyrimidin-1-yl)piperidine-1-carboxylate], for which the pIC50 in the experiment with breast line MDA468 (Homo sapiens, 72 h) is 5.76; in the experiment on prostate line LNCap (Homo sapiens, LNCaP, 72 h) it was 6.40.

For the molecule `COC(=O)Nc1ccc(-c2nc(N3CCOCC3)c3cnn(C4CCN(C(=O)OC)CC4)c3n2)cc1` [Compound 740, methyl 4-(6-{4-[(methoxycarbonyl)amino]phenyl}-4-morpholin-4-yl-1H-pyrazolo[3,4-d]pyrimidin-1-yl)piperidine-1-carboxylate], the pIC50 in the experiment on breast line MDA468 (Homo sapiens, 72 h) is 5.89; with prostate line LNCap (Homo sapiens, LNCaP, 72 h) it was 6.51.

As to `COC(=O)N1CCC(n2ncc3c(N4CCOCC4)nc(-c4ccc(NC(=O)Nc5ccc(CO)cc5)cc4)nc32)CC1` [Compound 912, methyl 4-{6-[4-({[4-(hydroxymethyl)phenyl]carbamoyl}amino)phenyl]-4-morpholin-4-yl-1H-pyrazolo[3,4-d]pyrimidin-1-yl}piperidine-1-carboxylate], the pIC50 is greater than 9.10 with breast line MDA468 (Homo sapiens, 72 h) and greater than 9.10 in the experiment on prostate line LNCap (Homo sapiens, LNCaP, 72 h).

Consider `CNS(=O)(=O)Nc1ccc(-c2nc(N3CCOCC3)c3cnn(C4CCN(C(=O)OC(C)(C)C)CC4)c3n2)cc1` [Compound 951, tert-butyl 4-(6-{4-[(methylsulfamoyl)amino]phenyl}-4-morpholin-4-yl-1H-pyrazolo[3,4-d]pyrimidin-1-yl)piperidine-1-carboxylate], for which the negative logarithm of the IC50 (pIC50) was 5.11 with breast line MDA468 (Homo sapiens, 72 h) and 5.40 in the experiment with prostate line LNCap (Homo sapiens, LNCaP, 72 h).

For `Cn1ncc2c(N3CCC(n4c(=O)[nH]c5ccccc54)CC3)nc(-c3ccccc3)nc21` [Example 12], the negative logarithm of the IC50 (pIC50) is 4.92 in the experiment with breast line MDA468 (Homo sapiens, 72 h) and 6.12 in the experiment on prostate line LNCap (Homo sapiens, LNCaP, 72 h).

As for `COCC(=O)N1CCC(n2ncc3c(N4CCOCC4)nc(-c4cccc(O)c4)nc32)CC1` [Example 30], the pIC50 with breast line MDA468 (Homo sapiens, 72 h) is 5.85; in the experiment with prostate line LNCap (Homo sapiens, LNCaP, 72 h), 6.30.

Turning to `Nc1cccc(-c2nc(N3CCOCC3)c3cnn(C4CCN(Cc5ccccc5)CC4)c3n2)c1` [Example 60], the negative logarithm of the IC50 (pIC50) in the experiment on breast line MDA468 (Homo sapiens, 72 h) was 5.26; in the experiment on prostate line LNCap (Homo sapiens, LNCaP, 72 h) it was 5.70.

In the case of `CN(C)C(=O)c1ccc(-c2nc(N3CCOCC3)c3cnn(C4CCN(Cc5ccccc5)CC4)c3n2)cc1` [Example 71], the negative-log IC50 (pIC50) is 4.89 in the experiment with breast line MDA468 (Homo sapiens, 72 h) and 5.00 in the experiment with prostate line LNCap (Homo sapiens, LNCaP, 72 h).

As to `O=CNc1cccc(-c2nc(N3CCOCC3)c3cnn(C4CCN(Cc5ccccc5)CC4)c3n2)c1` [Example 77], the pIC50 in the experiment on breast line MDA468 (Homo sapiens, 72 h) was 5.05; with prostate line LNCap (Homo sapiens, LNCaP, 72 h) it was 5.29.

As for `CC(=O)Nc1ccc(-c2nc(N3CCOCC3)c3cnn(C4CCN(Cc5ccccc5)CC4)c3n2)cc1` [Example 80, N-{4-[1-(1-benzylpiperidin-4-yl)-4-morpholin-4-yl-1H-pyrazolo[3,4-d]pyrimidin-6-yl]phenyl}acetamide], the pIC50 in the experiment on breast line MDA468 (Homo sapiens, 72 h) was 5.64; in the experiment on prostate line LNCap (Homo sapiens, LNCaP, 72 h), 6.35.

Turning to `COC(=O)Nc1ccc(-c2nc(N3CCOCC3)c3cnn(-c4ccccc4)c3n2)cc1` [Example 101, methyl [4-(4-morpholin-4-yl-1-phenyl-1H-pyrazolo[3,4-d]pyrimidin-6-yl)phenyl]carbamate], the negative logarithm of the IC50 (pIC50) with breast line MDA468 (Homo sapiens, 72 h) is 4.66; in the experiment on prostate line LNCap (Homo sapiens, LNCaP, 72 h) it was 5.00.

With `Nc1ccc(-c2nc(N3CCOCC3)c3cnn(-c4ccccc4)c3n2)cn1` [Example 129, 5-(4-morpholin-4-yl-1-phenyl-1H-pyrazolo[3,4-d]pyrimidin-6-yl)pyridin-2-amine], the negative-log IC50 (pIC50) with breast line MDA468 (Homo sapiens, 72 h) is 5.89; with prostate line LNCap (Homo sapiens, LNCaP, 72 h), 6.39.

With `CNC(=S)Nc1ccc(-c2nc(N3CCOCC3)c3cnn(C4CCN(Cc5cccnc5)CC4)c3n2)cc1` [Example 377, 1-methyl-3-(4-{4-morpholin-4-yl-1-[1-(pyridin-3-ylmethyl)piperidin-4-yl]-1H-pyrazolo[3,4-d]pyrimidin-6-yl}phenyl)thiourea], the pIC50 with breast line MDA468 (Homo sapiens, 72 h) is 6.30; in the experiment on prostate line LNCap (Homo sapiens, LNCaP, 72 h) it was 7.15.

For the molecule `N#CN=C(N)Nc1ccc(-c2nc(N3CCOCC3)c3cnn(C4CCN(Cc5cccnc5)CC4)c3n2)cc1` [Example 406, 2-cyano-1-(4-{4-morpholin-4-yl-1-[1-(pyridin-3-ylmethyl)piperidin-4-yl]-1H-pyrazolo[3,4-d]pyrimidin-6-yl}phenyl)guanidine], the pIC50 in the experiment on breast line MDA468 (Homo sapiens, 72 h) is 5.96; in the experiment with prostate line LNCap (Homo sapiens, LNCaP, 72 h), 5.85.

`COC(=O)Nc1ccc(-c2nc(N3CCOCC3)c3cnn(C4CCN(C(=O)c5ccc(C#N)cc5)CC4)c3n2)cc1` [Example 447, methyl (4-{1-[1-(4-cyanobenzoyl)piperidin-4-yl]-4-morpholin-4-yl-1H-pyrazolo[3,4-d]pyrimidin-6-yl}phenyl)carbamate]: the pIC50 in the experiment on breast line MDA468 (Homo sapiens, 72 h) is 5.92; in the experiment with prostate line LNCap (Homo sapiens, LNCaP, 72 h), 6.22.
